Assay results: paper PMC6776084 (ChemMedChem, 2009)
Where two headings read alike, the source gives them in different places.

Legend:
[1] = test system: cellular thymidine kinase (TK); conditions: cited from earlier work
[2] = test system: HIV; conditions: qualitative; cited from earlier work
[3] = test system: HIV-1 based vector containing wild-type (wt) HIV-1 RT; format: cell-based; conditions: for EC50: read-out: EC50(HOS-313), HOS-313 cells (HSV-1 TK), 48 h, wt HIV-1 RT vector
[4] = test system: HOS-313 cells; format: cell-based, human; conditions: read-out: CC50(HOS-313), absence of virus, ATP level
[5] = test system: HIV-1 based vector containing wild-type (wt) HIV-1 RT; conditions: for EC50: read-out: EC50(HOS), HOS cells, 48 h, wt HIV-1 RT vector
[6] = test system: HOS cells
[7] = test system: HIV-1

SMILES: Cc1cn([C@H]2C[C@H](N=[N+]=[N-])[C@@H](CO)O2)c(=O)[nH]c1=O [AZT]
- Affinity for cellular thymidine kinase (TK) ([1]; qualitative): equivalent to that of thymidine itself

SMILES: Cc1cn([C@H]2C[C@H](O)[C@]3(CO)C[C@H]23)c(=O)[nH]c1=O [Compound 3a, North-methanocarbathymidine]
- Anti-HIV activity [2]: inactive

SMILES: Nc1ncnc2c1ncn2[C@H]1C=C[C@]2(CO)C[C@H]12 [Compound 4c, ((1′R, 4′S, 5′S)-4-(6-Amino-9H-purin-9-yl)bicyclo[3.1.0]hex-2-en-1-yl)methanol]
- EC50 [3]: 11.1 µM
- CC50 [4]: 246 µM
- Selectivity index (cytotoxicity versus infectivity), HOS cells [5]: 25 fold
- EC50 [5]: 16.7 µM
- CC50 ([6]; read-out: CC50(HOS), HOS cells, absence of virus, ATP level): 423 µM
- Anti-HIV activity [7]: active

SMILES: Nc1ccn([C@H]2C=C[C@]3(CO)C[C@H]23)c(=O)n1 [Compound 4d, 4-Amino-1-((1′S, 2′S, 5′R)-5-(hydroxymethyl)bicyclo[3.1.0]hex-3-en-2-yl)pyrimidin-2(1H)-one]
- Cytotoxicity (qualitative) [6]: relatively non-toxic
- Anti-HIV activity [7]: inactive

SMILES: Cc1cn([C@@]23C=C[C@@H](CO)[C@@H]2C3)c(=O)[nH]c1=O [Compound 6a, 1-((1′S, 4′R, 5′S)-4-(Hydroxymethyl)bicyclo[3.1.0]hex-2-en-1-yl)-5-methylpyrimidine-2,4(1H,3H)-dione]
- Anti-HIV activity [7]: inactive

SMILES: Nc1nc2c(ncn2[C@@]23C=C[C@@H](CO)[C@@H]2C3)c(=O)[nH]1 [Compound 6b, 2-Amino-9-((1′S, 4′R, 5′S)-4-(hydroxymethyl)bicyclo[3.1.0]hex-2-en-1-yl)-1H-purin-6(9H)-one]
- Anti-HIV activity [7]: inactive

SMILES: Nc1ncnc2c1ncn2[C@@]12C=C[C@@H](CO)[C@@H]1C2 [Compound 6c, ((1′S, 2′R, 5′S)-5-(6-Amino-9H-purin-9-yl)bicyclo[3.1.0]hex-3-en-2-yl)methanol]
- Anti-HIV activity [7]: inactive

SMILES: Nc1ccn([C@@]23C=C[C@@H](CO)[C@@H]2C3)c(=O)n1 [Compound 6d, 4-Amino-1-((1′S, 4′R, 5′S)-4-(hydroxymethyl)bicyclo[3.1.0]hex-2-en-1-yl)pyrimidin-2(1H)-one]
- Selectivity index, HOS-313 cells [3]: 130
- EC50 [3]: 3 µM
- Selectivity index (cytotoxicity versus infectivity), HOS cells [5]: 15.8
- EC50 [5]: 26.8 µM
- Anti-HIV activity [7]: +/− active

SMILES: Cc1cn([C@H]2C=C[C@@H](CO)O2)c(=O)[nH]c1=O [Compound D4T, stavudine]
- Phosphorylation by cellular thymidine kinase (TK), less efficient than for AZT [1]: 500 fold
